From patent US12018021B2 (UCB Biopharma SRL, priority 2018, dated 2024)

molecular target: IgE-Tb / FcεRIα-Y131A-AF488 (Homo sapiens, UniProt P01854); assay: IgE-Tb / FcεRIα-Y131A-AF488 FRET assay (protocol for examples 1 to 233); format: binding; settings: examples 1 to 233: 5 nM IgE-Tb, 25 nM FcεRIα-Y131A-AF488, incubated 2 hours at room temperature; read-out: Y131A FRET IC50 range
In short: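 TR-FRET displacement with 5 nM IgE-Tb and 25 nM FcεRIα-Y131A-AF488 (final), 10-point 3-fold compound dilutions from typically 10 μM top, 2% DMSO, 2 h at room temperature. Excitation 330 nm, 520/495 nm emission ratio; MIN set with 200 nM unlabelled FcεRIα. IC50 from four-parameter logistic fit of percent inhibition.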

IgE-Tb / FcεRIα-Y131A-AF488, sequence (P01854 1-427 limits assumed, stated change not applied): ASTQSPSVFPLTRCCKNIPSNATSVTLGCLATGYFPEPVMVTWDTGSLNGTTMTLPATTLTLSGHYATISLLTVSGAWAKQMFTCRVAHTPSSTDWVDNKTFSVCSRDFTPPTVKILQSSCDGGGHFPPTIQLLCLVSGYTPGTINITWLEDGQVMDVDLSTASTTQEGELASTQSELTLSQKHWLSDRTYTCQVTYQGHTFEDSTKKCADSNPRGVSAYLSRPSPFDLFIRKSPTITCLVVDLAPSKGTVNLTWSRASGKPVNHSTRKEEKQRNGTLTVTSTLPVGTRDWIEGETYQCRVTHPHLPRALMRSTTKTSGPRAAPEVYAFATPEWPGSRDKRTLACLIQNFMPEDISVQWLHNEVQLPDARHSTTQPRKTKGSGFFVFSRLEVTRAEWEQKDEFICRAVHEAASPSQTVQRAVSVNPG

O=C(NCC1CC1)c1c(NC(=O)C2CC2)sc2c1CC(n1nncc1Nc1cccnc1)CC2 (stereo not shown) [Example 141, 2-(Cyclopropanecarbonylamino)-N-(cyclopropylmethyl)-5-[5-(3-pyridylamino)triazo-1-yl]-4,5,6,7-tetrahydrobenzothiophene-3-carboxamide] and O=C(NCC1CC1)c1c(NC(=O)C2CC2)sc2c1CC(n1ccnc1Nc1ccccc1)CC2 (stereo not shown) [Example 155, 5-(2-Anilinoimidazol-1-yl)-2-(cyclopropanecarbonylamino)-N-(cyclopropylmethyl)-4,5,6,7-tetrahydrobenzothiophene-3-carboxamide] cannot be ordered by IC50: under 1000 nM for the first, under 1000 nM for the second.

Compared with CCNC(=S)NC1CCc2sc(NC(=O)C3CC3)c(C(=O)NCC3CC3)c2C1 (stereo not shown) [Example 142, 2-(Cyclopropanecarbonylamino)-N-(cyclopropylmethyl)-5-(ethylcarbamothioylamino)-4,5,6,7-tetrahydrobenzothiophene-3-carboxamide], CCNC(=O)NC1CCc2sc(NC(=O)C3CC3)c(C(=O)NCC3CC3)c2C1 (stereo not shown) [Example 157, 2-(Cyclopropanecarbonylamino)-N-(cyclopropylmethyl)-5-(ethylcarbamoylamino)-4,5,6,7-tetrahydrobenzothiophene-3-carboxamide] is higher in IC50: under 1000 nM for the first, 1000 to 10000 nM for the second. The first is the more potent here.

O=C(NCC1CC1)c1c(NC(=O)C2CC2)sc2c1C[C@@H](n1cnnc1N[C@H]1CCOC1)CC2 [Example 143, (5S)-2-(cyclopropanecarbonylamino)-N-(cyclopropylmethyl)-5-[3-[[(3S)-tetrahydrofuran-3-yl]amino]-1,2,4-triazol-4-yl]-4,5,6,7-tetrahydrobenzothiophene-3-carboxamide] and Cc1noc(C)c1Nc1nncn1[C@H]1CCc2sc(NC(=O)C3CC3)c(C(=O)NCC3CC3)c2C1 [Example 148, (5S)-2-(Cyclopropanecarbonylamino)-N-(cyclopropylmethyl)-5-[3-[(3,5-dimethylisoxazol-4-yl)amino]-1,2,4-triazol-4-yl]-4,5,6,7-tetrahydrobenzothiophene-3-carboxamide] cannot be ordered by IC50: under 1000 nM for the first, under 1000 nM for the second.

CCNC(=NC#N)NC1CCc2sc(NC(=O)C3CC3)c(C(=O)NCC3CC3)c2C1 (stereo not shown) [Example 144, 5-[[N′-Cyano-N-ethyl-carbamimidoyl]amino]-2-(cyclopropanecarbonylamino)-N-(cyclopropylmethyl)-4,5,6,7-tetrahydrobenzothiophene-3-carboxamide] and CCNC(=NC#N)N[C@H]1CCc2sc(NC(=O)C3CC3)c(C(=O)NCC3CC3)c2C1 [Example 156, (5S)-5-[[N′-cyano-N-ethyl-carbamimidoyl]amino]-2-(cyclopropanecarbonylamino)-N-(cyclopropylmethyl)-4,5,6,7-tetrahydrobenzothiophene-3-carboxamide] cannot be ordered by IC50: under 1000 nM for the first, under 1000 nM for the second.

First: CCN/C(=N\[N+](=O)[O-])N[C@H]1CCc2sc(NC(=O)C3CC3)c(C(=O)NCC3CC3)c2C1 [Example 145, (5S)-2-(Cyclopropanecarbonylamino)-N-(cyclopropylmethyl)-5-[[(E)-N-ethyl-N′-nitro-carbamimidoyl]amino]-4,5,6,7-tetrahydrobenzothiophene-3-carboxamide]
Second: CCN/C(=N\[N+](=O)[O-])N[C@@H]1CCc2sc(NC(=O)C3CC3)c(C(=O)NCC3CC3)c2C1 [Example 146, (5R)-2-(Cyclopropanecarbonylamino)-N-(cyclopropylmethyl)-5-[[(E)-N-ethyl-N′-nitro-carbamimidoyl]amino]-4,5,6,7-tetrahydrobenzothiophene-3-carboxamide]
The IC50 of the first is lower: under 1000 nM for the first, 10000 to 50000 nM for the second.

CCNc1nccn1[C@H]1CCc2sc(NC(=O)C3CC3)c(C(=O)NCC3CC3)c2C1 [Example 147, (5S)-2-(Cyclopropanecarbonylamino)-N-(cyclopropylmethyl)-5-[2-(ethylamino)imidazol-1-yl]-4,5,6,7-tetrahydrobenzothiophene-3-carboxamide] and CCNc1nnnn1C1CCc2sc(NC(=O)C3CC3)c(C(=O)NCC3CC3)c2C1 (stereo not shown) [Example 160, 2-(Cyclopropanecarbonylamino)-N-(cyclopropylmethyl)-5-[5-(ethylamino)tetrazol-1-yl]-4,5,6,7-tetrahydrobenzothiophene-3-carboxamide] cannot be ordered by IC50: under 1000 nM for the first, under 1000 nM for the second.

CCOC(=O)N=C(Nc1ccc(C)cc1)NC1CCc2sc(NC(=O)C3CC3)c(C(=O)NCC3CC3)c2C1 (stereo not shown) [Example 149, ethyl N-[[[2-(cyclopropanecarbonylamino)-3-(cyclopropylmethylcarbamoyl)-4,5,6,7-tetrahydrobenzothiophen-5-yl]amino]-(4-methylanilino)methylene]carbamate] and CON=C(Nc1ccc(C)cc1)NC1CCc2sc(NC(=O)C3CC3)c(C(=O)NCC3CC3)c2C1 (stereo not shown) [Example 168, 2-(Cyclopropanecarbonylamino)-N-(cyclopropylmethyl)-5-[[N′-methoxy-N-(p-tolyl)carbamimidoyl]amino]-4,5,6,7-tetrahydrobenzothiophene-3-carboxamide] cannot be ordered by IC50: under 1000 nM for the first, under 1000 nM for the second.

Cc1ncccc1Nc1nccn1[C@H]1CCc2sc(NC(=O)C3CC3)c(C(=O)NCC3CC3)c2C1 [Example 150, (5S)-2-(Cyclopropanecarbonylamino)-N-(cyclopropylmethyl)-5-[2-[(2-methyl-3-pyridyl)amino]imidazol-1-yl]-4,5,6,7-tetrahydrobenzothiophene-3-carboxamide] and Cc1cc(Nc2nncn2[C@@H]2CCc3sc(NC(=O)C4CC4)c(C(=O)NCC4CC4)c3C2)n(C)n1 [Example 162, (5R)-2-(Cyclopropanecarbonylamino)-N-(cyclopropylmethyl)-5-[3-[(2,5-dimethylpyrazol-3-yl)amino]-1,2,4-triazol-4-yl]-4,5,6,7-tetrahydrobenzothiophene-3-carboxamide] cannot be ordered by IC50: under 1000 nM for the first, under 1000 nM for the second.

First: CCNC(=C[N+](=O)[O-])NC1CCc2sc(NC(=O)C3CC3)c(C(=O)NCC3CC3)c2C1 (stereo not shown) [Example 151, 2-(cyclopropanecarbonylamino)-N-(cyclopropylmethyl)-5-[[1-(ethylamino)-2-nitro-vinyl]amino]-4,5,6,7-tetrahydrobenzothiophene-3-carboxamide]
Second: Cc1cc(=O)[nH]c(NC2CCc3sc(NC(=O)C4CC4)c(C(=O)NCC4CC4)c3C2)n1 (stereo not shown) [Example 152, 2-(Cyclopropanecarbonylamino)-N-(cyclopropylmethyl)-5-[(4-methyl-6-oxo-1H-pyrimidin-2-yl)amino]-4,5,6,7-tetrahydrobenzothiophene-3-carboxamide]
The IC50 of the first is higher: 1000 to 10000 nM for the first, under 1000 nM for the second.

CNC(=O)c1ncn([C@H]2CCc3sc(NC(=O)C4CC4)c(C(=O)NCC4CC4)c3C2)c1N [Example 153, 5-amino-1-[(5S)-2-cyclopropaneamido-3-[(cyclopropylmethyl)carbamoyl]-4,5,6,7-tetrahydro-1-benzothiophen-5-yl]-N-methyl-1H-imidazole-4-carboxamide] and NC(=O)c1ncn([C@H]2CCc3sc(NC(=O)C4CC4)c(C(=O)NCC4CC4)c3C2)c1N [Example 154, 5-amino-1-[(5S)-2-cyclopropaneamido-3-[(cyclopropylmethyl)carbamoyl]-4,5,6,7-tetrahydro-1-benzothiophen-5-yl]-1H-imidazole-4-carboxamide] cannot be ordered by IC50: under 1000 nM for the first, under 1000 nM for the second.

O=C(NCC1CC1)c1c(NC(=O)C2CC2)sc2c1CC(Nc1cc(=O)cc[nH]1)CC2 (stereo not shown) [Example 158, 2-(Cyclopropanecarbonylamino)-N-(cyclopropylmethyl)-5-[(4-oxo-1H-pyridin-2-yl)amino]-4,5,6,7-tetrahydrobenzothiophene-3-carboxamide] and O=C(NCC1CC1)c1c(NC(=O)C2CC2)sc2c1C[C@@H](Nc1ncc[nH]1)CC2 [Example 166, (5S)-2-(Cyclopropanecarbonylamino)-N-(cyclopropylmethyl)-5-(1H-imidazol-2-ylamino)-4,5,6,7-tetrahydrobenzothiophene-3-carboxamide] cannot be ordered by IC50: under 1000 nM for the first, under 1000 nM for the second.

Cc1nnc(-c2ccc(N[C@H]3CCc4sc(NC(=O)C5CC5)c(C(=O)NCC5CC5)c4C3)cn2)o1 [Example 159, (5S)-2-(cyclopropanecarbonylamino)-N-(cyclopropylmethyl)-5-[[6-(5-methyl-1,3,4-oxadiazol-2-yl)-3-pyridyl]amino]-4,5,6,7-tetrahydrobenzothiophene-3-carboxamide] and O=C(NCC1CC1)c1c(NC(=O)C2CC2)sc2c1CC(Nc1nc[nH]n1)CC2 (stereo not shown) [Example 161, 2-(Cyclopropanecarbonylamino)-N-(cyclopropylmethyl)-5-(1H-1,2,4-triazol-3-ylamino)-4,5,6,7-tetrahydrobenzothiophene-3-carboxamide] cannot be ordered by IC50: under 1000 nM for the first, under 1000 nM for the second.

First: Cn1cc(-n2cnnc2N[C@H]2CCc3sc(NC(=O)C4CC4)c(C(=O)NCC4CC4)c3C2)cn1 [Example 163, (5S)-2-(Cyclopropanecarbonylamino)-N-(cyclopropylmethyl)-5-[[4-(1-methylpyrazol-4-yl)-1,2,4-triazol-3-yl]amino]-4,5,6,7-tetrahydrobenzothiophene-3-carboxamide]
Second: O=C(NCC1CC1)c1c(NC(=O)C2CC2)sc2c1CC(Nc1nncn1-c1ccc(F)cc1)CC2 (stereo not shown) [Example 165, 2-(Cyclopropanecarbonylamino)-N-(cyclopropylmethyl)-5-[[4-(4-fluorophenyl)-1,2,4-triazol-3-yl]amino]-4,5,6,7-tetrahydrobenzothiophene-3-carboxamide]
The IC50 of the first is higher: 1000 to 10000 nM for the first, under 1000 nM for the second.

CCOC(=O)c1cn([C@H]2CCc3sc(NC(=O)C4CC4)c(C(=O)NCC4CC4)c3C2)cn1 [Example 164, ethyl 1-[(5S)-2-cyclopropaneamido-3-[(cyclopropylmethyl)carbamoyl]-4,5,6,7-tetrahydro-1-benzothiophen-5-yl]-1H-imidazole-4-carboxylate] and Cc1cc(Nc2nncn2C2CCc3sc(NC(=O)C4CC4)c(S(=O)(=O)NCC(C)C)c3C2)n(C)n1 (stereo not shown) [Example 167] cannot be ordered by IC50: under 1000 nM for the first, under 1000 nM for the second.
